These results are taken from patent EP0991643B1 (SCHERING CORPORATION, priority 1997, dated 1998).

Bounds are passed on as bounds.

The target of the first assay is T1, partially purified rat brain farnesyl protein transferase (FPT) (Rattus norvegicus, UniProt Q02293+Q04631).
T1 construct: partially purified rat brain farnesyl protein transferase (FPT); from tissue; host or cells: rat brain
T1 sequence (Q02293 whole entry, one chain of several): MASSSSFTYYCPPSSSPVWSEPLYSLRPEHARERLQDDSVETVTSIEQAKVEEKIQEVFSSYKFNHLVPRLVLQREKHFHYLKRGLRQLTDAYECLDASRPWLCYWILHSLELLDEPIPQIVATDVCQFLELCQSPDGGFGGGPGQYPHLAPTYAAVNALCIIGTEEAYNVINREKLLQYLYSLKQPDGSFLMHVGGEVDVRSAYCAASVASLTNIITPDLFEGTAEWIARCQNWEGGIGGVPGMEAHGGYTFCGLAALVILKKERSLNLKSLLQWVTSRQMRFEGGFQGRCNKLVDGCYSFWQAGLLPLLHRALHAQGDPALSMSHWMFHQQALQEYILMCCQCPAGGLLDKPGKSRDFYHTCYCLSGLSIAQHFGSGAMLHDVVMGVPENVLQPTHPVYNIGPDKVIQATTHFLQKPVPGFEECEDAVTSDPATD
As to the kind of experiment: In vitro enzyme assay: inhibition of Ras-CVLS farnesylation by farnesyl protein transferase (FPT). To be noted: H-ras (Ras-CVLS) substrate; methods of WO 95/10515 or WO 95/10516. The assay is classed as biochemical. The procedure: (§1) 1. In vitro enzyme assays: FPT IC50 (inhibition of farnesyl protein transferase, in vitro enzyme assay) are determined by the methods disclosed in […] or WO 95/10516. […] 2. Cell-based assay. COS IC50 values refer to the COS cells activity inhibition of Ras processing, are determined by the methods disclosed in […] or WO 95/10516.
As usually defined, the IC50 is the midpoint of a concentration-inhibition curve. `CC(C)=NOCCC(=O)N1CCC([C@H]2c3ncc(Br)cc3CCc3cc(Cl)cc(Br)c32)CC1` [Example 4, (+)-4-(3,10-dibromo-8-chloro-6,11-dihydro-5H-benzo[5,6]cyclohepta[1,2-b]pyridin-11(R)-yl)-1-[3-[[(1-methylethylidene]amino]oxy]-1-oxopropyl]piperidine] displayed an IC50 of 54 nM.

Consider `CC(C)(C)OC(=O)NOCC(=O)N1CCC([C@H]2c3ncc(Br)cc3CCc3cc(Cl)cc(Br)c32)CC1` [Example 5, (+)-1,1-Dimethylethyl-N-[2-[4-(3,10-dibromo-8-chloro-6,11-dihydro-5H-benzo[5,6]cyclohepta[1,2-b]pyridin-11(R)-yl)-1-piperidinyl]-2-oxoethoxy]carbamate], for which 170 nM corresponded to half-maximal inhibition (IC50).

On to `C/C(=N\OCC(=O)N1CCC([C@H]2c3ncc(Br)cc3CCc3cc(Cl)cc(Br)c32)CC1)c1cccs1` [Example 9, (+)-4-(3,10-dibromo-8-chloro-6,11-dihydro-5H-benzo[5,6]cyclohepta[1,2-b]pyridin-11(R)-yl)-1-[[[[(E)-1-(2-thienyl)ethylidene]amino]oxy]acetyl]piperidine], for which the IC50 worked out at 150 nM.

The compound `COc1ccc(/C(C)=N/OCC(=O)N2CCC([C@H]3c4ncc(Br)cc4CCc4cc(Cl)cc(Br)c43)CC2)cc1` [Example 3] gave an IC50 of 180 nM.

`O=C(CON=C1CCCCC1)N1CCC([C@H]2c3ncc(Br)cc3CCc3cc(Cl)cc(Br)c32)CC1` [Example 10, (+)-4-(3,10-dibromo-8-chloro-6,11-dihydro-5H-benzo[5,6]cyclohepta[1,2-b]pyridin-11(R)-yl)-1-[[[[(cyclohexylidene]amino]]oxy]acetyl]piperidine] yielded an IC50 of 35 nM.

In turn, `O=C(CON=C1CCSCC1)N1CCC([C@H]2c3ncc(Br)cc3CCc3cc(Cl)cc(Br)c32)CC1` [Example 13] yielded an IC50 of 13 nM.

Consider `O=C(CO/N=C/c1ccccc1O)N1CCC([C@H]2c3ncc(Br)cc3CCc3cc(Cl)cc(Br)c32)CC1` [Example 7], for which half-maximal inhibition (IC50) required 370 nM.

`O=C(CO/N=C/c1cc[n+]([O-])cc1)N1CCC([C@H]2c3ncc(Br)cc3CCc3cc(Cl)cc(Br)c32)CC1` [Example 6] gave an IC50 of 3.6 nM.

As to `O=C(CON=C1CCOCC1)N1CCC([C@H]2c3ncc(Br)cc3CCc3cc(Cl)cc(Br)c32)CC1` [Example 12], the IC50 worked out at 12 nM.

Consider `O=C(CON=C1CCC2(CC1)OCCO2)N1CCC([C@H]2c3ncc(Br)cc3CCc3cc(Cl)cc(Br)c32)CC1` [Example 11], for which the IC50 came out at 24 nM.

With `CC(C)=NOCC(=O)N1CCC([C@H]2c3ncc(Br)cc3CCc3cc(Cl)cc(Br)c32)CC1` [Example 2], 6.5 nM corresponded to half-maximal inhibition (IC50).

`CC(=O)NOCC(=O)N1CCC([C@H]2c3ncc(Br)cc3CCc3cc(Cl)cc(Br)c32)CC1` [Example 14, (+)-N-[2-[4-(3,10-dibromo-8-chloro-6,11-dihydro-5H-benzo[5,6]cyclohepta[1,2-b]pyridin-11(R)-yl)-1-piperidinyl]-2-oxoethoxy]acetamide] returned an IC50 of 31 nM.

`C/C(=N\OCC(=O)N1CCC([C@H]2c3ncc(Br)cc3CCc3cc(Cl)cc(Br)c32)CC1)c1ccc(Cl)cc1` [Example 8, (+)-1-[[[[(E)-1-(4-chlorophenyl)ethylidene]amino]oxy]acetyl]-4-(3,10-dibromo-8-chloro-6,11-dihydro-5H-benzo[5,6]cyclohepta[1,2-b]pyridin-11(R)-yl)piperidine] registered a 50% inhibitory concentration (IC50) of over 180 nM.

The test system of the next assay is Ras processing in COS cells. As to the kind of experiment: Cell-based assay: inhibition of Ras processing in COS cells.
Details: not given
The procedure:
as §1
In turn, `O=C(CO/N=C/c1cc[n+]([O-])cc1)N1CCC([C@H]2c3ncc(Br)cc3CCc3cc(Cl)cc(Br)c32)CC1` [Example 6] had a half-maximal inhibitory concentration (IC50) of 690 nM.
